For one test, the target named is T1, Ba/F3 KIF5B-RET cells (Homo sapiens, UniProt P07949).
T1 construct: fused on or other part: P33176 (Kinesin-1 heavy chain)
The test can be described thus: Inhibition of proliferation of Ba/F3 KIF5B-RET cells (CellTiter-Glo). The conditions noted are these: 72 to 144 hours. It counts as cell-based. Put shortly: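 Cells plated overnight, then exposed to compound dilutions in DMSO/medium at 37° C, 5% CO2 for 72 to 144 hours. Viability read by CellTiter-Glo luminescence; IC50 from inhibition rates fitted by nonlinear regression.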

A further test concerns the target T2, KIF5B-RET (Homo sapiens, UniProt P07949).
T2 construct: purchased SignalChem R02-19FG-05; the other entry of the earlier key: KIF5B (P33176, Kinesin-1 heavy chain)
T2 sequence (P07949 with tags, fused parts or gaps): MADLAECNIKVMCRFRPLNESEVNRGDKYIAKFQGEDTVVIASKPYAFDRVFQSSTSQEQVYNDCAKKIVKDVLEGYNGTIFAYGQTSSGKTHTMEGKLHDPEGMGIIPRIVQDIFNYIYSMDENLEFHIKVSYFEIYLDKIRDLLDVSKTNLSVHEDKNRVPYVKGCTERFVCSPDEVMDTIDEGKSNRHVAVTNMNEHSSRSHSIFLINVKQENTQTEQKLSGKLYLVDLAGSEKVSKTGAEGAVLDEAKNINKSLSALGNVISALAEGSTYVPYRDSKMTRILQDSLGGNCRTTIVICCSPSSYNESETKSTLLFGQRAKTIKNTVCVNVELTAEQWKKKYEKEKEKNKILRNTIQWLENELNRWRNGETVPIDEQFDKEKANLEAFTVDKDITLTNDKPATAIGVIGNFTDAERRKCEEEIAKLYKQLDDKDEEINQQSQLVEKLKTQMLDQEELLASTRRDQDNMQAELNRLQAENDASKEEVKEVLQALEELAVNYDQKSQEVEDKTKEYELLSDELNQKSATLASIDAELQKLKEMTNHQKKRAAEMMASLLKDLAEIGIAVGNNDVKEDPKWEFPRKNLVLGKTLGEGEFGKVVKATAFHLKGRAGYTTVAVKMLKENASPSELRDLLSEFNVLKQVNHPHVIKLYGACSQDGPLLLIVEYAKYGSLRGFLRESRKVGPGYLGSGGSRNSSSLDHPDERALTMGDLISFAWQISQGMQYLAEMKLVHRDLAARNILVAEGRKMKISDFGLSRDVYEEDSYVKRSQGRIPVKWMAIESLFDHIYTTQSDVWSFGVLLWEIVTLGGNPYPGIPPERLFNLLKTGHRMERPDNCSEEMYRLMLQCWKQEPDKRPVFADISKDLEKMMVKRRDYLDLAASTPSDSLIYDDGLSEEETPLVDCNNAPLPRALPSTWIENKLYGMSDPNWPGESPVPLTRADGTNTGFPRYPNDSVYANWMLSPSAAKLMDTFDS
The test can be described thus: HTRF kinase activity inhibition, KIF5B-RET. It counts as biochemical. Conditions: ATP at Km. The text has this:
(§1) 2.2 Experimental Reagents: • RET enzyme was purchased from Carna Company, and the article number was 08-159; • RET M918T enzyme was purchased from Carna Company, and the article number was 08-508; • KIF5B-RET was purchased from SignalChem Company, the article number was R02-19FG-05; • CCDC6-RET was purchased from SignalChem Company, the article number was R02-19BG-05; • RET V804M enzyme was purchased from Thermofisher Company, and the article number was PV6223; • RET V804L enzyme was purchased from Thermofisher Company, and the article number was PV4397; • HTRF KinEASE-TK kit was purchased from Cisbio Company, and the article number was 62TK0PEC; • ATP was purchased from Thermofisher Company, and the article number was PV3227; • 384-well plate was purchased from PerkinElmer Company, and the article number was 6007290.
(§2) In this experiment, a homogeneous time-resolved fluorescence (HTRF) method was used for the detection of compounds on RET kinase activity.

The target of a further test is T3, RET V804L (Homo sapiens, UniProt P07949, V804L).
T3 construct: purchased Thermofisher PV4397
T3 sequence (P07949 29-1114 V804L): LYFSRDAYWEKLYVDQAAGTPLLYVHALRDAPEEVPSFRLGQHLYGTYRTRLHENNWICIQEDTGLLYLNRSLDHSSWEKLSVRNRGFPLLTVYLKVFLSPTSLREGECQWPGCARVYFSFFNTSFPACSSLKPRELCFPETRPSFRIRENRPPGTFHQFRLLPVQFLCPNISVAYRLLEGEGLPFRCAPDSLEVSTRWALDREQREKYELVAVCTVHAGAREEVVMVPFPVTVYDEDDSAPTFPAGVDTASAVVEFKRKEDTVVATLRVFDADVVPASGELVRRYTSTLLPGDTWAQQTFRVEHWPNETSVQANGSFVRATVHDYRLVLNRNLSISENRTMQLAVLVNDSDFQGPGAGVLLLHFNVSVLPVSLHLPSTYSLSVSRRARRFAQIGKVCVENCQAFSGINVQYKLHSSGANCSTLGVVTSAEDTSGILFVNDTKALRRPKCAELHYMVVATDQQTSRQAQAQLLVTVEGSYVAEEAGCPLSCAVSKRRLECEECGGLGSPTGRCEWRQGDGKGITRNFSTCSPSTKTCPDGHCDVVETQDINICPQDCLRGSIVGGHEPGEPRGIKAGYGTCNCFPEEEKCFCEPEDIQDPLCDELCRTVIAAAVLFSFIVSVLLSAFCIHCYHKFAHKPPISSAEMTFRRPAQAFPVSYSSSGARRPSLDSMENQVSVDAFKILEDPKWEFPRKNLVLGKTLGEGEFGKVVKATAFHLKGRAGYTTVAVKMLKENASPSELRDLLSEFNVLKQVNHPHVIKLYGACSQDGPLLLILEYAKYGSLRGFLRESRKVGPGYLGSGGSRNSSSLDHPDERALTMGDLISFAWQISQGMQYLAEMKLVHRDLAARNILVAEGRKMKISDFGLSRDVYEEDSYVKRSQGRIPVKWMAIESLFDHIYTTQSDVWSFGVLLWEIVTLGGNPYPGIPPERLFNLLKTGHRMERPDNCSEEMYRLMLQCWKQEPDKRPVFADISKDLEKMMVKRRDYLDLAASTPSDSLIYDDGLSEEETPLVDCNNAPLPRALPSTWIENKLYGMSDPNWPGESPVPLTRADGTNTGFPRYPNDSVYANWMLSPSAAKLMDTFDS
Kind of test: HTRF kinase activity inhibition, RET V804L. In kind it is biochemical. Conditions: ATP at Km.
Text: as §1, §2

For test [1], the system named is subcutaneous transplanted tumor of Ba/F3 KIF5B-RET cells. Kind of test: Tumor suppression on Ba/F3 KIF5B-RET transplanted tumor model. It counts as in vivo, BALB/c nude mice. The protocol: Ba/F3 KIF5B-RET cells were removed from the cell bank, resuscitated and added to RPMI1640 medium (RPMI1640+10% FBS+1% Glu+1% P/S), then cultured in a CO2 incubator (incubator temperature was 37° C., CO2 concentration was 5%), and when the cell number expanded to the required number for in vivo inoculation, Ba/F3 KIF5B-RET cells were collected. The cells were counted with an automatic cell counter, resuspended with PBS according to the count results, made into a cell suspension (density was 2×10^7/mL), and placed in an ice box for use.
Female BALB/c nude mice aged 6-8 weeks were used, weighing about 18-22 g. Mice were reared in SPF animal room, and were reared in a single cage with 5 mice in each cage. All cages, bedding and water were sterilized at high temperature before use, and all animals were allowed to eat and drink freely. Nude mice were labeled with disposable universal ear tags for mice and rats before the start of the experiment, and the skin of the inoculation site was disinfected with 75% medical alcohol before inoculation. 0.1 mL (containing 2*10^6 cells) of Ba/F3 KIF5B-RET cells were inoculated subcutaneously on the right back of each mouse. Group administration was initiated when the tumor volume reached 60-200 mm^3, with 5 mice in each group. Each test compound was administered orally twice a day for 14 days. The tumor volume and the weight of mice were measured twice a week, and the tumor TGI (%) was calculated.
The tumor volume (mm^3) was calculated as V=0.5*D*d*d, where D and d were the long and short diameters of the tumor, respectively.
When there was no tumor regression, TGI (%)=[(1-(mean tumor volume at the end of the administration in a treatment group−mean tumor volume at the start of administration in the treatment group))/(mean tumor volume at the end of treatment in the solvent control group−mean tumor volume at the start of treatment in the solvent control group)]×100%.
When there was tumor regression, TGI (%)=[1-(mean tumor volume at the end of administration in a treatment group−mean tumor volume at the beginning of administration in the treatment group)/mean tumor volume at the beginning of administration in the treatment group]×100%.

In general, IC50 refers to the concentration that inhibits the measured activity by half.

T1 sequence (P07949 whole entry, change not shown, the tested form may be a part): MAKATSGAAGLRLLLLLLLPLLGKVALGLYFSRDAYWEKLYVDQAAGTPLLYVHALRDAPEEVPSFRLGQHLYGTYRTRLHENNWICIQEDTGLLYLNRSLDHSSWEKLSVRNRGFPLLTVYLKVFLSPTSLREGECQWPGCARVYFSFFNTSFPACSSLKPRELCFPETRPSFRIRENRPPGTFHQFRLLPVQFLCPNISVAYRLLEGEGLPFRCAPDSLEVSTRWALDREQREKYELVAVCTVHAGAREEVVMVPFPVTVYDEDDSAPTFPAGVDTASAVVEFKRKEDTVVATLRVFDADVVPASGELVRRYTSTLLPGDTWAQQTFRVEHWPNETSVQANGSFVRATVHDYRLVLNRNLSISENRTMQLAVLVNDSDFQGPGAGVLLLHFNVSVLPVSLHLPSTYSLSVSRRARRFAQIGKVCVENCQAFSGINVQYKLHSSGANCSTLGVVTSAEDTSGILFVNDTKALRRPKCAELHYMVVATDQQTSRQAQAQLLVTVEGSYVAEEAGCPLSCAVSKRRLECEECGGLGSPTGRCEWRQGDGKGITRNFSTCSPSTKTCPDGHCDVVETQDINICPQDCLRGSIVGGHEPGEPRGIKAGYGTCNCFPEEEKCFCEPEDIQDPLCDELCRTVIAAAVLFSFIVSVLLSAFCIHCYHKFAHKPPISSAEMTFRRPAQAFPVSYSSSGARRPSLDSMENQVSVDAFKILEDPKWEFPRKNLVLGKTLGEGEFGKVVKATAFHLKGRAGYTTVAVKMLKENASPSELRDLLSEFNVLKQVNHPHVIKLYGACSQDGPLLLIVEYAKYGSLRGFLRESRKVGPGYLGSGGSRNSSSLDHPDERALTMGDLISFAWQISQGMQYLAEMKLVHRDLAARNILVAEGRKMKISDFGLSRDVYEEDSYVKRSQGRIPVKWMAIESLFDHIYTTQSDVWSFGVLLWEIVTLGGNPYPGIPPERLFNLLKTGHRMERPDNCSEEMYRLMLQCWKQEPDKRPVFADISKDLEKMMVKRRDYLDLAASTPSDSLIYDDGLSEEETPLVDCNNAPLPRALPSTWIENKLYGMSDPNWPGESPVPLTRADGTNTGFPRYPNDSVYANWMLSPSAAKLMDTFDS

`C#C[C@](C)(O)COc1cc(-c2ccc(N3CC4CC(C3)N4Cc3ccc(OC)nc3)nc2)c2c(C#N)cnn2c1` [Embodiment 64, 6-(((S)-2-hydroxy-2-methylbut-3-yn-1-yl)oxy)-4-(6-(6-((6-methoxypyridin-3-yl)methyl)-3,6-diazabicyclo[3.1.1]heptan-3-yl)pyridin-3-yl)pyrazolo[1,5-a]pyridine-3-carbonitrile]: the IC50 at Ba/F3 KIF5B-RET cells amounted to 22.6 nM; against KIF5B-RET, 0.36 nM; on RET V804L it was 0.23 nM. For the same molecule, in test [1] (10 mg/kg oral twice a day), the “Tumor volume (Mean ± SD) Day 0” value is 126.93 ± 16.98 mm^3. Besides, the “TGI (%) Day 14” value in test [1] (10 mg/kg oral twice a day) is on record as 88.39%. Moreover, the “Tumor volume (Mean ± SD) Day 14” value in test [1] (10 mg/kg oral twice a day) was 330.85 ± 147.00 mm^3.
For `COc1ncc(CN2C3CC2CN(c2ccc(-c4cc(C#CC(C)(C)O)cn5ncc(C#N)c45)cn2)C3)cc1F` [Embodiment 18, 4-(6-(6-((5-Fluoro-6-methoxypyridin-3-yl)methyl)-3,6-diazabicyclo[3.1.1]heptan-3-yl)pyridin-3-yl)-6-(3-hydroxy-3-methylbut-1-yn-1-yl)pyrazolo[1,5-a]pyridine-3-carbonitrile], the 50% inhibitory concentration (IC50) at Ba/F3 KIF5B-RET cells turned out to be 22.6 nM. At KIF5B-RET, this molecule registered an IC50 of 0.97 nM. In addition, the IC50 against RET V804L was found to be 0.74 nM. In addition, in test [1] (30 mg/kg oral twice a day), the “Tumor volume (Mean ± SD) Day 0” value was determined as 132.34 ± 19.40 mm^3, the “TGI (%) Day 14” value is 110.35% and the “Tumor volume (Mean ± SD) Day 14” value was determined as 118.64 ± 84.34 mm^3.
`C#C[C@@](C)(O)COc1cc(-c2ccc(N3CC4CC(C3)N4Cc3ccc(OC)nc3)nc2)c2c(C#N)cnn2c1` [Embodiment 63, 6-(((R)-2-hydroxy-2-methylbut-3-yn-1-yl)oxy)-4-(6-(6-((6-methoxypyridin-3-yl)methyl)-3,6-diazabicyclo[3.1.1]heptan-3-yl)pyridin-3-yl)pyrazolo[1,5-a]pyridine-3-carbonitrile]: the IC50 on Ba/F3 KIF5B-RET cells came to 11.1 nM. This molecule had an IC50 against KIF5B-RET of 0.53 nM. The molecule also registered an IC50 at RET V804L of 0.24 nM. For the same molecule, in test [1] (10 mg/kg oral twice a day), the “Tumor volume (Mean ± SD) Day 0” value was 126.13 ± 17.24 mm^3, the “TGI (%) Day 14” value is 94.66% and the “Tumor volume (Mean ± SD) Day 14” value is listed as 219.86 ± 64.31 mm^3.
In the case of `COc1ccc(CN2C3CC2CN(c2ccc(-c4cc(N5CC(C)(C#N)C5)cn5ncc(C#N)c45)cn2)C3)cn1` [Embodiment 77, 6-(3-Cyano-3-methylazetidin-1-yl)-4-(6-(6-((6-methoxypyridin-3-yl)methyl)-3,6-diazabicyclo[3.1.1]heptan-3-yl)pyridin-3-yl)pyrazolo[1,5-a]pyridine-3-carbonitrile], the half-maximal inhibitory concentration (IC50) on Ba/F3 KIF5B-RET cells came to 4.79 nM. At KIF5B-RET, this molecule displayed an IC50 of 0.42 nM. On RET V804L, this molecule displayed an IC50 of 0.49 nM. Also, in test [1] (10 mg/kg oral twice a day), the “Tumor volume (Mean ± SD) Day 0” value is listed as 101.59 ± 36.86 mm^3, the “TGI (%) Day 14” value worked out at 159.80% and the “Tumor volume (Mean ± SD) Day 14” value is recorded as 40.84 ± 53.92 mm^3.
